The source of these data is patent publication US8716268B2, “Nitrate esters of corticoid compounds useful as diuretics” (priority 2010, dated 2014).

The structures appear in SMILES notation. Marks after values point to notes of the source that are not given here.

For assay [1], the system named is NPR-A. The assay can be described thus: NPR-A expression in IMCD cells (immunofluorescence). Also noted: key to NPR-A expression (24 hours) / NPR-A expression (48 hours): + = low; ++ = moderate; +++ = high. Particulars: for NPR-A expression (24 hours) / NPR-A expression (48 hours): rat IMCD cells. Type of assay: cell-based, Wistar rats. From the text:
IMCD cells from Wistar rats were isolated and cultured using the method previously described by Ye Q et al.: Endothelin inhibits NPR-A and stimulates eNOS gene expression in rat IMCD cells. Hypertension 41, 675-681 (2003). […] […] The Density of membrane NPR-A in IMCD cells were visualized by immunofluorescence.

In assay [2] the test system is NPR-A. The experiment in a line: NPR-A expression in renal medulla of heart failure rats (western blotting). Format: in vivo, Wistar rats. As for the experimental part: (§1) To determine the effects of corticosteroids on systemic volume in HF, 15 Wistar rats with HF were randomized to receive NCX-1015 (n=5), or prednisolone (n=5), or vehicle (n=5). HF model was accomplished by left anterior descending artery ligation, and then the survived rats were raised for 12 weeks to have decompensated HF (i.e. HF with fluid accumulation). Parameters on urinary volume and urinary sodium in 12 hours were collected.

In the next assay the test system is vasopressin. The experiment in a line: Plasma vasopressin in rats with decompensated heart failure. Format: in vivo, Wistar rats. The following applies: 1 mg/kg, 24-hour treatment, mean ± SD. An excerpt:
(§2) To determine the effects of corticosteroids on vasopressin axis in HF, 15 Wistar rats with HF were randomized to receive NCX-1015 (n=5), or prednisolone (n=5), or vehicle (n=5).

Another assay deals with aldosterone. The experiment in a line: Plasma aldosterone in rats with decompensated heart failure. Type of assay: in vivo, Wistar rats. Particulars: 1 mg/kg, 24-hour treatment, mean ± SD. From the text: (§3) To determine the effects of corticosteroids on RAAS in HF, 15 Wistar rats with HF were randomized to receive NCX-1015 (n=5), or prednisolone (n=5), or vehicle (n=5).
Assay [3] is described as follows: Diuretic effect in rats with decompensated heart failure. Particulars: 1 mg/kg, 12 hours, mean ± SD. Format: in vivo, Wistar rats. As for the experimental part:
as §1

The test system of a further assay is V2 receptor. The experiment in a line: V2 receptor density in the kidney of rats with decompensated heart failure (western blotting). Particulars: 1 mg/kg, 24-hour treatment, mean ± SD. Type of assay: in vivo, Wistar rats.
Excerpt: as §2
(Immunoblotting shows a protein as a band on a membrane.)

Another assay deals with AT1 receptor. The assay can be described thus: AT1 receptor density in the kidney of rats with decompensated heart failure (western blotting). Type of assay: in vivo, Wistar rats. Particulars: 1 mg/kg, 24-hour treatment, mean ± SD.
Excerpt: as §3

Another assay has as its system angiotensin II. The experiment in a line: Plasma angiotensin II in rats with decompensated heart failure. Type of assay: in vivo, Wistar rats. The following applies: 1 mg/kg, 24-hour treatment, mean ± SD.
Excerpt: as §3

The subject of assay [4] is NPR-A. The assay can be described thus: NPR-A expression in renal medulla of intact rats (western blotting). Type of assay: in vivo. The following applies: intact Wistar rats, 24-hour treatment, Dex 1 mg/kg (RU486 100 mg/kg in combination), mean ± SD. From the text:
(§4) To determine the effect of glucocorticoids on diuretic effect and NPR-A expression in renal medulla, 15 intact Wistar rats were randomized to receive Dexamethasone (Dex), vehicle and glucocorticoid receptor (GR) antagonist RU 486.

Assay [5] in a line: Diuretic effect of Dexamethasone in intact Wistar rats. Particulars: 24-hour treatment, Dex 1 mg/kg (RU486 100 mg/kg in combination), mean ± SD. Format: in vivo.
Excerpt: as §4

The mark [6] stands for this setting: 10^−7 mol/L, membrane NPR-A density (Table 3).
Where [7] appears, read: 10^−7 mol/L, membrane NPR-A density.
Where [8] appears, read: 10^−6 mol/L, membrane NPR-A density.
Where [9] appears, read: 10^−6 mol/L, membrane NPR-A density (Table 3).

With `C[C@]12CCC(=O)C=C1CC[C@@H]1[C@@H]2[C@@H](O)C[C@@]2(C)[C@H]1CC[C@]2(O)C(=O)COC(=O)c1ccc(CO[N+](=O)[O-])cc1` [NCX-1022], in the assay with NPR-A [1] (setting [6]), the “NPR-A expression (24 hours)” value is “++” and the “NPR-A expression (48 hours)” value is “+++”.

Turning to `C[C@]12C=CC(=O)C=C1CC[C@@H]1[C@@H]2[C@@H](O)C[C@@]2(C)[C@H]1CC[C@]2(O)C(=O)COC(=O)c1ccc(CO[N+](=O)[O-])cc1` [NCX-1015, prednisolone 21-[(4′-nitro-oxymethyl)benzoate]], the “NPR-A expression in the renal medulla, higher than vehicle-treated rats” value in the assay on NPR-A [2] was 42.8%. In addition, in the assay on vasopressin, the Plasma vasopressin came to 32.14 ± 5.47 pg/mL. In the assay on aldosterone, this compound returned a Plasma aldosterone of 0.99 ± 0.09 ng/mL. Also, in [3], the Urinary sodium was 1.43 ± 0.15 mmol/12 h and the Urinary volume stood at 8.8 ± 1.5 ml/12 h. Further, in the assay with V2 receptor, the “V2 receptor density in the kidney” value is 54.06 ± 16.15 % of vehicle. Besides, the “AT1 receptor density in the kidney” value with AT1 receptor is listed as 43.14 ± 7.07 % of vehicle. The “Plasma angiotensin II” value in the assay with angiotensin II is listed as 412.20 ± 64.99*^& pg/ml. Besides, the “Dose needed to attain the same effect of prednisolone on renal NPR-A” value in the assay on NPR-A [1] (in vitro, fraction of the prednisolone dose) is recorded as “about 1/10”. Further, the “Time needed to attain the same effect of prednisolone on renal NPR-A” value with NPR-A [1] (in vitro, fraction of the prednisolone time) is given as “about half”. In the assay on NPR-A [1] (setting [7]), the “NPR-A expression (24 hours)” value is reported as “++” and the “NPR-A expression (48 hours)” value is “+++”.

Turning to `C[C@]12C=CC(=O)C=C1CC[C@@H]1[C@@H]2[C@@H](O)C[C@@]2(C)[C@H]1CC[C@]2(O)C(=O)CO` [prednisolone], the “NPR-A expression in the renal medulla, higher than vehicle-treated rats” value in the assay on NPR-A [2] is 26.5%. In addition, in the assay with vasopressin, the Plasma vasopressin was 45.72 ± 8.35^$ pg/ml. This compound also had a Plasma aldosterone in the assay with aldosterone of 1.39 ± 0.26 ng/mL. In addition, in [3], the Urinary sodium is 1.08 ± 0.1 mmol/12 h and the Urinary volume is 6.1 ± 0.7 ml/12 h. Besides, the “V2 receptor density in the kidney” value in the assay with V2 receptor is 79.80 ± 9.44^$ % of vehicle. The “AT1 receptor density in the kidney” value with AT1 receptor is 67.06 ± 12.96 % of vehicle. The “Plasma angiotensin II” value in the assay with angiotensin II is 665.86 ± 113.90^$ pg/ml. For the same compound, in the assay with NPR-A [1] (setting [8]), the “NPR-A expression (24 hours)” value is given as “+” and the “NPR-A expression (48 hours)” value is recorded as “++”.

Consider `C[C@@H]1C[C@H]2[C@@H]3CCC4=CC(=O)C=C[C@]4(C)[C@@]3(F)[C@@H](O)C[C@]2(C)[C@@]1(O)C(=O)CO` [Dex, Dexamethasone], for which the NPR-A expression in the assay on NPR-A [4] was 132.2 ± 9.7* 100% of vehicle. Besides, in assay [5], the Urinary sodium amounted to 3.50 ± 0.39 mmol/24 h and the Urinary volume is 16.4 ± 2.4 ml/24 h.

As to `C[C@]12CCC(=O)C=C1CC[C@@H]1[C@@H]2[C@@H](O)C[C@@]2(C)[C@H]1CC[C@]2(O)C(=O)CO` [hydrocortisone], in the assay with NPR-A [1] (setting [9]), the “NPR-A expression (24 hours)” value is “+” and the “NPR-A expression (48 hours)” value is “++”.
